How the values were obtained:
[1] = target: T1, Cf ΔA/B EcR + RXR α + GRIP1 (Choristoneura fumiferana, UniProt O77240); test: Yeast 6x EcRE-lacZ β-galactosidase transactivation assay; assay type: cell-based, Choristoneura fumiferana; human; details: RH 5992 10 μM, 4 hours, DMSO control 0.270
T1 construct: human ubiquitin (76 aa) (N, cleaved yes); expressed in transfected cells; host or cells: yeast (Saccharomyces cerevisiae)
Experimental: (§1) The human RXR α (Genbank accession number X52773), mouse RXR β (Genbank accession number X66224) or mouse RXR γ (Genebank accession number X66225) subtypes were expressed in yeast-E. coli multicopy 2μ expression plasmids under regulation of CUP1 promoter with the LEU2 selective marker (1).
Briefly, yeast cells are cultured in 5 mL of YPD liquid medium overnight at 30° C. The cell culture was diluted 1:20 in YPD media and further grown until cell density reached an O.D of 0.6. at OD600. The cells were pelleted by centrifugation and washed with 10 mL of TE+0.1M lithium acetate. Cells are then resuspended in 10 mL TE+0.1M lithium acetate and incubated at 30° C. for 1 hour. Cells are collected and resuspended in 0.5 mL of TE+ 0.1M lithium acetate. Aliquots of cells (50 μL), were incubated for 15 minutes at 30° C. with 1–2 μg plasmid DNA in the presence of 5 μg of denatured salmon sperm DNA as DNA carrier. In the case of co-transformation, the indicated plasmids were added simultaneously. 50% polyethyleneglycol of molecular weight 4000, diluted in TE, was added to a final concentration of 35%. DMSO was added to the transformation solution simultaneously to a final concentration 3%. The samples were mixed well by vortexing and incubated for an additional 30 minutes at 30° C. The cell mixture is then heated for 15 minutes at 42° C. […]

[2] = target: T2, Aa ΔA/B EcR + RXRα + GRIP1 (Aedes aegypti, UniProt P49880); test: as above; assay type: cell-based, Aedes aegypti; human; details: RH 5992 10 μM, 4 hours, DMSO control 0.544
T2 construct: ubiquitin (human, 76 aa) (N, cleaved yes); expressed in transfected cells
T2 sequence (P49880 with tags, fused parts or gaps): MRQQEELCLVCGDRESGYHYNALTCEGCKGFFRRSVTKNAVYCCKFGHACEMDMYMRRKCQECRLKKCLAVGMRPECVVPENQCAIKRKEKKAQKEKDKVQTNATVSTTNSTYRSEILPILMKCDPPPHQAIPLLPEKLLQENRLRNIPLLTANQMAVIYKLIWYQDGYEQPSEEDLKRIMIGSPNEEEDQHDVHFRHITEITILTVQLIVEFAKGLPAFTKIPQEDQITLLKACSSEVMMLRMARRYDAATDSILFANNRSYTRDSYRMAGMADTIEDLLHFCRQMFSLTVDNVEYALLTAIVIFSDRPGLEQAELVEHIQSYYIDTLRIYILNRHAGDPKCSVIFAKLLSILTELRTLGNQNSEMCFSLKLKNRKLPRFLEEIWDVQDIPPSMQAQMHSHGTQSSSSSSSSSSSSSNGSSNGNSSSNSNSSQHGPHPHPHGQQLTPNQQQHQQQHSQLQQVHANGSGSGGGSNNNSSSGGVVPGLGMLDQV
T2 sequence (P19793 whole entry partner): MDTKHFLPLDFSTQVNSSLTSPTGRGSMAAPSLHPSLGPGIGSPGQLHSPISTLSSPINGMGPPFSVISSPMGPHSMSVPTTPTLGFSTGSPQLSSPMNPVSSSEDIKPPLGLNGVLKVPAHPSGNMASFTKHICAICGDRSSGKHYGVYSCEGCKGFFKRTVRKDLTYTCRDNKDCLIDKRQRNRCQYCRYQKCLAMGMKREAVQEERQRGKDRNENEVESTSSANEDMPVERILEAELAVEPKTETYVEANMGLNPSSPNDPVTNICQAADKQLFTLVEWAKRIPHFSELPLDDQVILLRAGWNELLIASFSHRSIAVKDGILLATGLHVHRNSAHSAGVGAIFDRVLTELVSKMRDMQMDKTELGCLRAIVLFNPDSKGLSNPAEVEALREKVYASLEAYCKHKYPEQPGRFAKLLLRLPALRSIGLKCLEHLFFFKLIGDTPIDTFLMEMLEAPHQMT
Experimental: as §1
Briefly, yeast cells are cultured in 5 mL of YPD liquid medium overnight at 30° C. The cell culture was diluted 1:20 in YPD media and further grown until cell density reached an O.D of 0.6. at OD600. The cells were pelleted by centrifugation and washed with 10 mL of TE+0.1M lithium acetate. Cells are then resuspended in 10 mL TE+0.1M lithium acetate and incubated at 30° C. for 1 hour. Cells are collected and resuspended in 0.5 mL of TE+ 0.1M lithium acetate. […]
Using the transformation method described above, yeast were co-transformed with a reporter gene as shown in FIG. 2 and the expression vector encoding the full-length Aedes aegypti ecdysone receptor, Aa EcR (FIG. 7A) in the presence or absence of the Aa EcR heterodimer partner, Aa USP (a or b form, FIGS. 8A and 8B respectively). […] As the N-terminal portion of the AaEcR receptor is reported to play a role in ligand independent transactivation, an expression vector containing an N-terminal deletion in the Aa EcR was constructed (see FIG. 7B) and assessed in the β-galactosidase assays described above. […]

T1 sequence (O77240 entry or part of it, stated change not applied): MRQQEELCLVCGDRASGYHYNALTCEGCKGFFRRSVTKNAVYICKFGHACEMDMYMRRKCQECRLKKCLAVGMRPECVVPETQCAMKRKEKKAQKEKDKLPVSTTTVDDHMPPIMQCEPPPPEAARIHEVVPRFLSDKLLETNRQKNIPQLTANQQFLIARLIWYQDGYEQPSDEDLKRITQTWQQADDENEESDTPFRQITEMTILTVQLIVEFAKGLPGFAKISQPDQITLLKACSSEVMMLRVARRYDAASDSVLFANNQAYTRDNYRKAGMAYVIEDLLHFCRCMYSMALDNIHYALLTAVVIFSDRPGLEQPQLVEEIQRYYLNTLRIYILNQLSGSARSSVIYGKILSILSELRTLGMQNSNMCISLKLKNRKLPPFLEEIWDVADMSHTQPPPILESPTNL
T1 sequence (P19793 whole entry partner): as the sequence (P19793 whole entry partner) above

CCc1ccc(C(=O)NN(C(=O)c2cc(C)cc(C)c2)C(C)(C)C)cc1 [RH 5992, tebufenozide]
β-galactosidase activity [1]: 2.063
β-galactosidase activity [2]: 2.032

Reference: patent US7037656B2, “Methods and compositions for identifying ligands for nuclear receptors” (priority 2000, dated 2006)
